Measured values from patent publication US10294202B2, “Pyrrolidinones as herbicides” (FMC Corporation, priority 2013, dated 2019).

Columns and labels:
sedge, umbrella = test: Test C flooded paddy test; format: in vivo, Cyperus difformis; conditions: Flood
How it was run: (§1)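 Visual injury scored against controls after 13 to 15 days in the greenhouse, using 0 (no effect) to 100 (complete control). Test compounds went straight into paddy water held 3 cm above the soil surface on 2-leaf-stage plants, with that flood depth maintained for the whole test.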

ducksalad = test: Test C flooded paddy test; format: in vivo, Heteranthera limosa; conditions: Flood
How it was run: as §1

barnyardgrass = test: Test C flooded paddy test; format: in vivo, Echinochloa crus-galli; conditions: Flood
How it was run: as §1

kochia = test: Test A pre-/postemergence herbicide test; format: in vivo, Kochia scoparia
How it was run: (§2)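 Seeds sown in loam soil/sand blend received a preemergence directed soil spray of test chemical in non-phytotoxic solvent with surfactant; postemergence plants (2–10 cm, one- to two-leaf stage) were sprayed with the same formulation. After about 10 days in greenhouse, injury was rated visually versus untreated controls, 0 (no effect) to 100 (complete control).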

ryegrass, Italian = test: Test A pre-/postemergence herbicide test; format: in vivo, Lolium multiflorum
How it was run: as §2

[1] = 125 g ai/ha, visual rating, 0 to 100 scale, 0 no effect, 100 complete control, approximately 10 days, preemergence
[2] = Postemergence, 125 g ai/ha, 0 to 100 scale, 0 no effect, 100 complete control
[3] = preemergence, 500 g ai/ha, 0 to 100 scale
[4] = 62 g ai/ha, scale of 0 to 100 where 0 is no effect and 100 is complete control, 13 to 15 days
[5] = 125 g ai/ha, scale of 0 to 100 where 0 is no effect and 100 is complete control, 13 to 15 days
[6] = Postemergence, 125 g ai/ha, 0 to 100 scale, 0 is no effect, 100 is complete control
[7] = preemergence, 500 g ai/ha, 0 to 100 scale, 0 is no effect and 100 is complete control
[8] = 250 g ai/ha, scale of 0 to 100 where 0 is no effect and 100 is complete control, 13 to 15 days
[9] = Postemergence, 500 g ai/ha, 0 to 100 scale (0 no effect, 100 complete control)
[10] = Preemergence, 125 g ai/ha, 0 to 100 scale where 0 is no effect and 100 is complete control
[11] = Postemergence, 125 g ai/ha, visual rating on 0 to 100 scale (0 no effect, 100 complete control), approx. 10 days
[12] = Preemergence, 500 g ai/ha, visual rating on 0 to 100 scale (0 no effect, 100 complete control)
[13] = 31 g ai/ha, scale of 0 to 100 where 0 is no effect and 100 is complete control, 13 to 15 days

| SMILES | Plant response rating, Sedge, Umbrella (sedge, umbrella; 250 g ai/ha, scale 0 to 100) | Plant response rating, Ducksalad (ducksalad; 250 g ai/ha, scale 0 to 100) | Plant response rating, Barnyardgrass (barnyardgrass; 250 g ai/ha, scale 0 to 100) | Plant response rating, Kochia (kochia; [1]) | Kochia plant response rating (0 to 100 scale, 0 is no effect, 100 is complete control) (kochia; Postemergence, 500 g ai/ha) | Plant response rating, Ryegrass, Italian (ryegrass, Italian; [1]) | Ryegrass, Italian plant response rating (0 to 100 scale, 0 is no effect, 100 is complete control) (ryegrass, Italian; Postemergence, 500 g ai/ha) | Plant response rating, Sedge, Umbrella (sedge, umbrella; [5]) | Plant response rating, Ducksalad (ducksalad; [5]) | Plant response rating, Barnyardgrass (barnyardgrass; [5]) | Plant response rating, Kochia (kochia; [6]) | Plant response rating, Kochia (kochia; [7]) | Plant response rating, Ryegrass, Italian (ryegrass, Italian; [7]) | Plant response rating, Kochia (kochia; [9]) | Plant response rating, Kochia (kochia; [10]) | Plant response rating, Ryegrass, Italian (ryegrass, Italian; [11]) | Plant response rating, Ryegrass, Italian (ryegrass, Italian; [9]) | Plant response rating, Ryegrass, Italian (ryegrass, Italian; [10]) | Plant response rating, Kochia (kochia; [11]) | Kochia plant response rating (kochia; [12]) | further results |
| --- | --- | --- | --- | --- | --- | --- | --- | --- | --- | --- | --- | --- | --- | --- | --- | --- | --- | --- | --- | --- | --- |
| O=C1NCC(c2ccc(F)c(C(F)(F)F)c2)C1C(=O)Nc1cccc(F)c1F (racemic) [Compound 77] | 0 | 95 | 20 | – | – | – | – | – | – | – | – | – | – | – | – | – | – | – | – | – | Plant response rating, Sedge, Umbrella (sedge, umbrella; 500 g ai/ha, scale 0 to 100): 0; Plant response rating, Sedge, Umbrella (sedge, umbrella; 1000 g ai/ha, scale 0 to 100): 20; Plant response rating, Sedge, Umbrella (sedge, umbrella; 2000 g ai/ha, scale 0 to 100): 40; Plant response rating, Ducksalad (ducksalad; 500 g ai/ha, scale 0 to 100): 100; Plant response rating, Ducksalad (ducksalad; 1000 g ai/ha, scale 0 to 100): 100; Plant response rating, Ducksalad (ducksalad; 2000 g ai/ha, scale 0 to 100): 100; Plant response rating, Barnyardgrass (barnyardgrass; 500 g ai/ha, scale 0 to 100): 30; Plant response rating, Barnyardgrass (barnyardgrass; 1000 g ai/ha, scale 0 to 100): 40; Plant response rating, Barnyardgrass (barnyardgrass; 2000 g ai/ha, scale 0 to 100): 70 |
| O=C1NCC(c2ccc(F)cc2)C1C(=O)Nc1ccc(F)c(F)c1F (racemic) [Compound 120] | 0 | 100 | 60 | 60 | 70 | 30 | 50 | 0 | 100 | 50 | – | – | – | – | – | – | – | – | – | – | Plant response rating, Kochia (kochia; [2]): 60; Plant response rating, Kochia (kochia; [3]): 80; Plant response rating, Ryegrass, Italian (ryegrass, Italian; [2]): 30; Plant response rating, Ryegrass, Italian (ryegrass, Italian; [3]): 50; Plant response rating, Sedge, Umbrella (sedge, umbrella; [4]): 0; Plant response rating, Sedge, Umbrella (sedge, umbrella; 500 g ai/ha, scale 0 to 100): 0; Plant response rating, Ducksalad (ducksalad; [4]): 100; Plant response rating, Ducksalad (ducksalad; 500 g ai/ha, scale 0 to 100): 100; Plant response rating, Barnyardgrass (barnyardgrass; [4]): 40; Plant response rating, Barnyardgrass (barnyardgrass; 500 g ai/ha, scale 0 to 100): 75 |
| O=C1NCC(c2cccc(C(F)F)c2)C1C(=O)Nc1ccccc1F (racemic) [Compound 210] | – | – | – | 0 | 60 | 0 | 50 | 0 | 0 | 0 | 20 | 30 | 50 | – | – | – | – | – | – | – | Plant response rating, Ryegrass, Italian (ryegrass, Italian; [6]): 0; Plant response rating, Sedge, Umbrella (sedge, umbrella; [8]): 0; Plant response rating, Sedge, Umbrella (sedge, umbrella; 500 g ai/ha, scale 0 to 100): 0; Plant response rating, Sedge, Umbrella (sedge, umbrella; 1000 g ai/ha, scale 0 to 100): 0; Plant response rating, Ducksalad (ducksalad; [8]): 80; Plant response rating, Ducksalad (ducksalad; 500 g ai/ha, scale 0 to 100): 100; Plant response rating, Ducksalad (ducksalad; 1000 g ai/ha, scale 0 to 100): 100; Plant response rating, Barnyardgrass (barnyardgrass; [8]): 45; Plant response rating, Barnyardgrass (barnyardgrass; 500 g ai/ha, scale 0 to 100): 70; Plant response rating, Barnyardgrass (barnyardgrass; 1000 g ai/ha, scale 0 to 100): 75 |
| O=C1NCC(c2cc(F)cc(F)c2)C1C(=O)Nc1ccccc1Cl (racemic) [Compound 280] | – | – | – | – | – | – | – | – | – | – | 0 | 0 | 0 | 0 | 0 | 0 | 0 | 0 | – | – | – |
| O=C1NCC(c2ccc(OC(F)F)cc2)C1C(=O)Nc1cccc(F)c1F (racemic) [Compound 350] | – | – | – | – | – | – | – | – | – | – | – | – | – | – | 80 | 0 | – | 0 | 70 | 80 | Ryegrass, Italian plant response rating (ryegrass, Italian; [12]): 0 |
| O=C1NCC(Br)(c2ccccc2)C1C(=O)Nc1ccccc1F (stereo not shown) [Compound 92, 4-bromo-N-(2-fluorophenyl)-2-oxo-4-phenyl-3-pyrrolidinecarboxamide] | 0 | 70 | 10 | – | – | – | – | 0 | 20 | 10 | – | – | – | – | – | – | – | – | – | – | Plant response rating, Sedge, Umbrella (sedge, umbrella; [13]): 0; Plant response rating, Sedge, Umbrella (sedge, umbrella; [4]): 0; Plant response rating, Ducksalad (ducksalad; [13]): 0; Plant response rating, Ducksalad (ducksalad; [4]): 20; Plant response rating, Barnyardgrass (barnyardgrass; [13]): 10; Plant response rating, Barnyardgrass (barnyardgrass; [4]): 10 |
| O=C1NCC(c2ccccc2)C1(Br)C(=O)Nc1ccccc1F (stereo not shown) [Compound 93, 3-bromo-N-(2-fluorophenyl)-2-oxo-4-phenyl-3-pyrrolidinecarboxamide] | 100 | 85 | 40 | – | – | – | – | 0 | 0 | 0 | – | – | – | – | – | – | – | – | – | – | Plant response rating, Sedge, Umbrella (sedge, umbrella; [13]): 0; Plant response rating, Sedge, Umbrella (sedge, umbrella; [4]): 0; Plant response rating, Ducksalad (ducksalad; [13]): 0; Plant response rating, Ducksalad (ducksalad; [4]): 0; Plant response rating, Barnyardgrass (barnyardgrass; [13]): 0; Plant response rating, Barnyardgrass (barnyardgrass; [4]): 0 |
| O=C1NCC(c2ccc(Cl)cc2)C1C(=O)Nc1cccc(F)c1F (stereo not shown) [Compound 218] | – | – | – | 30 | 60 | 40 | 30 | – | – | – | 50 | 70 | 60 | – | – | – | – | – | – | – | Plant response rating, Ryegrass, Italian (ryegrass, Italian; [6]): 0 |
| O=C1NCC(c2ccc(C(F)(F)F)cc2)C1C(=O)Nc1ccccc1F (stereo not shown) [Compound 231] | – | – | – | 70 | 90 | 40 | 40 | – | – | – | 70 | 90 | 60 | – | – | – | – | – | – | – | Plant response rating, Ryegrass, Italian (ryegrass, Italian; [6]): 20 |
| CN1CC(c2cccc(C(F)(F)F)c2)C(C(=O)Nc2cccc(F)c2F)C1=O (stereo not shown) [Compound 305] | – | – | – | – | – | – | – | – | – | – | – | – | – | 70 | 70 | 60 | 70 | 70 | 30 | 70 | Ryegrass, Italian plant response rating (ryegrass, Italian; [12]): 90 |
| CN1CC(c2ccc(C(F)(F)F)cc2)C(C(=O)Nc2cccc(F)c2F)C1=O (stereo not shown) [Compound 306] | – | – | – | – | – | – | – | – | – | – | – | – | – | 70 | 70 | 50 | 60 | 40 | 30 | 80 | Ryegrass, Italian plant response rating (ryegrass, Italian; [12]): 80 |
| CC(C)c1cccc(C2CNC(=O)C2C(=O)Nc2cccc(F)c2F)c1 (stereo not shown) [Compound 319] | – | – | – | – | – | – | – | – | – | – | – | – | – | 50 | 60 | 30 | 50 | 30 | 30 | 80 | Ryegrass, Italian plant response rating (ryegrass, Italian; [12]): 60 |
